Laboratory results as given in patent US20040229867A1, “Treatment of gastrointestinal dysfunction and related stress with an enantiomerically-pure (R) 2,3-benzodiazepine” (priority 2003, published 2004).

Key:
[1] = tested on: hydrochloric acid-induced, alkali-induced and cauterization-induced ulcers; conditions: in vivo; cited from earlier work
[2] = tested on: abdominal contractions induced by colonic distension; experiment: Visceral hypersensitivity, pain and bloating test (colonic distension after 1% acetic acid); assay type: in vivo, rat
stress-induced ulcers = conditions: pre-treatment 30 or 100 mg/kg PO; cited from earlier work
[3] = tested on: gastrointestinal propulsive motility; experiment: Charcoal meal test (basal gastrointestinal propulsive motility); assay type: in vivo, rat; conditions: for % Inhibition: numbers in parentheses indicate % increase; for effect on charcoal meal transit: R-tofisopam at the highest dose tested, loperamide positive control
gastric function = conditions: cited from earlier work
[4] = tested on: stress-induced ulcer formation; experiment: Water immersion stress-induced ulcers test; assay type: in vivo, rat; conditions: for Score for the Presence of Ulcers Mean ± SEM: score 0-4; for Ulceration Index: ulcer score x percentage of stomachs showing ulcers; for effect on ulcer score: text summary of Table 4
[5] = tested on: colonic propulsive motility; experiment: Glass bead test (stimulated colonic propulsion); assay type: in vivo, mouse; conditions: for Expulsion Time Mean ± SEM: 30 minutes prior to bead insertion, cutoff 30 minutes, in min
Experimental: In the test, usually performed in mice, a 3-mm glass bead is inserted through the anus into the distal colon (using a glass rod) to a depth of 2 cm. The time to expel the glass bead is then measured; normally, the glass bead is expelled in approximately 10 minutes. This model is especially sensitive to compounds with inhibitory effects on stretch-stimulated propulsive motor activity; as such, it is often used as an animal model for IBS. A test compound that inhibits stretch-stimulated-colonic propulsive motility, may be used to treat gastrointestinal dysfunction, including IBS. […] The glass bead test is commonly used to evaluate the ability of compounds to affect stimulated colonic propulsion. In the test, usually performed in mice, a 3-mm glass bead is inserted through the anus into the distal colon (using a glass rod) to a depth of 2 cm. The time to expel the glass bead is then measured; normally, the glass bead is expelled in approximately 10 minutes. This model is especially sensitive to compounds with inhibitory effects on stretch-stimulated propulsive motor activity; as such, it is often used as an animal model for IBS. In each study, RS— and R-tofisopam were evaluated for their ability to increase or decrease the time for expulsion of the glass bead.

[6] = tested on: dextran sulfate sodium-induced colitis; experiment: Dextran sulfate sodium-induced colitis; assay type: in vivo; conditions: DSS 5% solution in tap water
Description: Another gastrointestinal disorder model tested was the dextran sulfate sodium-induced colitis. In this model of colitis, an acute inflammation of the colon is produced by administration of dextran sulfate sodium (DSS) as a 5% solution in tap water. This colitis is characterized by histological events and an influx of neutrophils, macrophages and mediators of inflammation similar to those observed with human inflammatory bowel diseases.

[7] = tested on: dextran sulfate sodium-induced colitis; conditions: in vivo; cited from earlier work
[8] = first experiment, 64 mg/kg IP, 30 minutes prior to charcoal meal
[9] = 8 mg/kg IP 30 minutes prior to water immersion

SMILES | % Intestine Traversed Mean ± SEM ([3]; first experiment, 16 mg/kg IP) | % Intestine Traversed Mean ± SEM ([3]; first experiment, 32 mg/kg IP) | % Intestine Traversed Mean ± SEM [3, 8] | % Inhibition ([3]; first experiment, 64 mg/kg IP) | % Intestine Traversed Mean ± SEM ([3]; second experiment, 4 mg/kg IP) | % Intestine Traversed Mean ± SEM ([3]; second experiment, 8 mg/kg IP) | % Intestine Traversed Mean ± SEM ([3]; second experiment, 16 mg/kg IP) | % Inhibition ([3]; second experiment, 16 mg/kg IP) | % Intestine Traversed Mean ± SEM ([3]; second experiment, 32 mg/kg IP) | % Inhibition ([3]; second experiment, 32 mg/kg IP) | % of Stomachs Showing Ulcers ([4]; 8 mg/kg IP) | Score for the Presence of Ulcers Mean ± SEM [4, 9] | Ulceration Index ([4]; 8 mg/kg IP) | % of Stomachs Showing Ulcers ([4]; 16 mg/kg IP) | Score for the Presence of Ulcers Mean ± SEM ([4]; 16 mg/kg IP) | Ulceration Index ([4]; 16 mg/kg IP) | % of Stomachs Showing Ulcers ([4]; 32 mg/kg IP) | Score for the Presence of Ulcers Mean ± SEM ([4]; 32 mg/kg IP) | Ulceration Index ([4]; 32 mg/kg IP) | % of Stomachs Showing Ulcers ([4]; 64 mg/kg IP) | also measured
CCC1C(C)=NN=C(c2ccc(OC)c(OC)c2)c2cc(OC)c(OC)cc21 (racemic) [RS-tofisopam, tofisopam] | 73.5 ± 3.5% | 77.7 ± 2.3% | 81.7 ± 2.8% | 0% | 77.9 ± 2.9% | 78.3 ± 1.7% | 70.4 ± 3.7% | 5.8% | 65.6 ± 4.5% | 12.2% | 100% | 3.4 ± 0.3 | 338 | 100% | 3.4 ± 0.3 | 338 | 100% | 3.5 ± 0.3 | 350 | 100% | effect on cauterization-induced ulcers [1]: promoted the healing; effect on hydrochloric acid-induced and alkali-induced ulcers [1]: suppressed the development; effect on number of abdominal contractions versus vehicle control ([2]; 32 mg/kg): did not significantly modify; reduction of number of stress-induced ulcers and total area of ulceration (stress-induced ulcers): ≤ 90%; % Inhibition ([3]; first experiment, 16 mg/kg IP): 9.8%; % Inhibition ([3]; first experiment, 32 mg/kg IP): 4.7%; effect on basal gastric acid output and mucosal blood flow (gastric function; intracerebroventricular injection 50 or 100 μg): increased both basal gastric acid output and mucosal blood flow; effect on basal gastric acid output (gastric function; intravenous injection 10 mg/kg): did not change basal gastric acid output; Score for the Presence of Ulcers Mean ± SEM ([4]; 64 mg/kg IP): 3.1 ± 0.3; Ulceration Index ([4]; 64 mg/kg IP): 313; % of Stomachs Showing Ulcers ([4]; 128 mg/kg IP): 75%; Score for the Presence of Ulcers Mean ± SEM ([4]; 128 mg/kg IP): 2.4 ± 0.4; Ulceration Index ([4]; 128 mg/kg IP): 178; % Inhibition ([5]; 16 mg/kg IP): 46%; Expulsion Time Mean ± SEM ([5]; 16 mg/kg IP): 19.0 ± 2.8; % Inhibition ([5]; 32 mg/kg IP): 71%; Expulsion Time Mean ± SEM ([5]; 32 mg/kg IP): 23.7 ± 2.6; % Inhibition ([5]; 64 mg/kg IP): 82%; Expulsion Time Mean ± SEM ([5]; 64 mg/kg IP): 26.4 ± 2.4
CN1C(=O)CC(=O)N(c2ccccc2)c2cc(Cl)ccc21 [Clobazam, clobazam] |  |  |  |  |  |  |  |  |  |  |  |  |  | 100% | 3.6 ± 0.2 | 363 | 75% | 2.6 ± 0.5 | 197 |  | effect on ulcer score [4]: reduced the ulcer score slightly, but this effect was not statistically significant
CN(C)C(=O)C(CCN1CCC(O)(c2ccc(Cl)cc2)CC1)(c1ccccc1)c1ccccc1 [Loperamide, loperamide] |  |  |  |  |  |  | 28.1 ± 2.2 % | 62.5% |  |  |  |  |  |  |  |  |  |  |  |  | effect on charcoal meal transit ([3]; second experiment): considerable slowing
CC[C@H]1C(C)=NN=C(c2ccc(OC)c(OC)c2)c2cc(OC)c(OC)cc21 [R-tofisopam, (R)-1-(3,4-dimethoxyphenyl)-4-methyl-5-ethyl-7,8-dimethoxy-5H-2,3-benzodiazepine] | 82.8 ± 3.1% | 85.4 ± 2.9% | 72.9 ± 2.9 % | 10.6% | 71.72 ± 3.2% | 75.2 ± 4.1% | 65.7 ± 3.0% | 12.1% | 59.5 ± 3.2 % | 20.3% | 100% | 3.6 ± 0.3 | 363 | 88% | 3.1 ± 0.5 | 273 | 88% | 3.1 ± 0.5 | 273 | 29% | decrease of abdominal cramps versus vehicle control ([2]; 32 mg/kg p.o.): 49%; number of abdominal cramps ([2]; 32 mg/kg p.o., vehicle control 18.8 cramps): 9.5±1.7 cramps; % Inhibition ([3]; second experiment, 4 mg/kg IP): 4.1%; effect on charcoal meal transit ([3]; second experiment): only a slight inhibition; Score for the Presence of Ulcers Mean ± SEM ([4]; 64 mg/kg IP): 1.7 ± 0.6; Ulceration Index ([4]; 64 mg/kg IP): 49; % of Stomachs Showing Ulcers ([4]; 128 mg/kg IP): 38%; Score for the Presence of Ulcers Mean ± SEM ([4]; 128 mg/kg IP): 1.4 ± 0.2; Ulceration Index ([4]; 128 mg/kg IP): 52; effect on ulcer score [4]: significantly reduced the ulcer score; effect in DSS colitis model compared with racemic tofisopam [6]: substantially greater effect; % Inhibition ([5]; 16 mg/kg IP): 100%; Expulsion Time Mean ± SEM ([5]; 16 mg/kg IP): 30.0 ± 0.0; % Inhibition ([5]; 32 mg/kg IP): 99%; Expulsion Time Mean ± SEM ([5]; 32 mg/kg IP): 29.7 ± 0.3; % Inhibition ([5]; 64 mg/kg IP): 90%; Expulsion Time Mean ± SEM ([5]; 64 mg/kg IP): 28.0 ± 1.1; effect on colonic expulsion ([5]; text summary of Table 1, 16-64 mg/kg IP): significantly prolonged (i.e., slowed) colonic expulsion
O=C(O)c1cc(/N=N/c2ccc(S(=O)(=O)Nc3ccccn3)cc2)ccc1O [sulfasalazine] |  |  |  |  |  |  |  |  |  |  |  |  |  |  |  |  |  |  |  |  | activity in DSS colitis model [7]: have been shown to have activity in this model
